These are literature values, as cited in patent US20100055067A1, “PERFLUOROCARBON CONJUGATE AS A BLOOD SUBSTITUTE” (SNU R&DB Foundation, priority 2008, published 2010).

The structures appear in SMILES notation. Read-outs that look alike come from different tables or passages of the source.

The conditions of data set [1]: relatively low boiling point.

For the molecule `FC(F)(F)C(F)(F)C(F)(F)C(F)(F)N(C(F)(F)C(F)(F)C(F)(F)C(F)(F)F)C(F)(F)C(F)(F)C(F)(F)C(F)(F)F` [FC-43, perfluorotributylamine], the “accumulation in the internal organs” value (administered to test animals, liver and spleen, resulting in an adverse effect to the animals) is “accumulate in the internal organs such as liver and spleen for a long period of time”.
For `FC1(F)OC(F)(F)C(F)(F)C1(F)F` [FX-80, perfluorotetrahydrofuran], the “damage to the lung” value in data set [1] was “can cause substantial damage to the lung”.
On to `FC(OC(F)(F)C(F)(OC(F)(F)C(F)(OC(F)(F)C(F)(OC(F)(F)C(F)(F)C(F)(F)F)C(F)(F)F)C(F)(F)F)C(F)(F)F)C(F)(F)F` (stereo not drawn) [Freon E-4, 2-monohydrononacosafluoro-3,6,9,1 2-tetraoxa-5,8,11-trimethylpentadecan], for which the “accumulation in the internal organs” value (in vivo) was “accumulate in the internal organs such as liver and spleen for a long period of time”.
